What all share (assay): Peptidase activity detection on Columbia agar containing substrate
Format in all cases: cell-based

Series [1] deals with Bacillus subtilis NCTC 9372. The arrangement: key: − = no fluorescence detected; e = trace of fluorescence; +/− = weak fluorescence; + = medium fluorescence; ++ = strong fluorescence; NG = No Growth. The settings on record: substrate 100 mg/l, 24 hours at 37° C., UV 360-365 nm. Here is the method: (§1) 40 mg of each substrate are dissolved in 4 ml of dimethylformamide (DMF). This solution is completely taken up in 400 ml of Columbia agar autoclaved beforehand and kept molten at 50° C. The final concentration for each substrate is therefore 100 mg/l. Each of the media is distributed into 90 mm Petri dishes in a proportion of 20 ml per dish.
(§2) 18 microorganism strains derived from collections and belonging to various species of bacteria and of yeasts are inoculated onto these media by semi-quantitative isolation of 10 μl of a suspension at 0.5 McFarland diluted to 1/20. The media are incubated for 24 hours at 37° C., and then the colonies formed are examined visually under UV illumination at 360-365 nm.

Series [2] has as its system Candida albicans ATCC 90028. The arrangement: key: − = no fluorescence detected; e = trace of fluorescence; +/− = weak fluorescence; + = medium fluorescence; ++ = strong fluorescence; NG = No Growth. As to conditions: substrate 100 mg/l, 24 hours at 37° C., UV 360-365 nm. Here is the method:
as §1, §2

Series [3] deals with Candida glabrata NCPF3943. The arrangement: key: − = no fluorescence detected; e = trace of fluorescence; +/− = weak fluorescence; + = medium fluorescence; ++ = strong fluorescence; NG = No Growth. As to conditions: substrate 100 mg/l, 24 hours at 37° C., UV 360-365 nm. Here is the method:
as §1, §2

The test system of series [4] is Enterobacter cloacae NCTC 11936. Set-up: key: − = no fluorescence detected; e = trace of fluorescence; +/− = weak fluorescence; + = medium fluorescence; ++ = strong fluorescence; NG = No Growth. The settings on record: substrate 100 mg/l, 24 hours at 37° C., UV 360-365 nm. Here is the method:
as §1, §2

Series [5] concerns Enterococcus faecalis NCTC 775. The arrangement: key: − = no fluorescence detected; e = trace of fluorescence; +/− = weak fluorescence; + = medium fluorescence; ++ = strong fluorescence; NG = No Growth. As to conditions: substrate 100 mg/l, 24 hours at 37° C., UV 360-365 nm. Here is the method:
as §1, §2

For series [6], the system named is Enterococcus faecium NCTC 11047. The arrangement: key: − = no fluorescence detected; e = trace of fluorescence; +/− = weak fluorescence; + = medium fluorescence; ++ = strong fluorescence; NG = No Growth. As to conditions: Enterococcus faecium NCTC 11047 (Table 2); substrate 100 mg/l, 24 hours at 37° C., UV 360-365 nm. The method, then:
as §1, §2

In series [7] the test system is Escherichia coli NCTC 10418. Set-up: key: − = no fluorescence detected; e = trace of fluorescence; +/− = weak fluorescence; + = medium fluorescence; ++ = strong fluorescence; NG = No Growth. The settings on record: substrate 100 mg/l, 24 hours at 37° C., UV 360-365 nm. Here is the method:
as §1, §2

The subject of series [8] is Listeria monocytogenes NCTC 11994. Set-up: key: − = no fluorescence detected; e = trace of fluorescence; +/− = weak fluorescence; + = medium fluorescence; ++ = strong fluorescence; NG = No Growth. As to conditions: substrate 100 mg/l, 24 hours at 37° C., UV 360-365 nm. The method, then:
as §1, §2

Series [9] concerns Providencia rettgeri NCTC 7475. The arrangement: key: − = no fluorescence detected; e = trace of fluorescence; +/− = weak fluorescence; + = medium fluorescence; ++ = strong fluorescence; NG = No Growth. The settings on record: substrate 100 mg/l, 24 hours at 37° C., UV 360-365 nm. Here is the method:
as §1, §2

For series [10], the system named is Salmonella Typhimurium NCTC 74. Set-up: key: − = no fluorescence detected; e = trace of fluorescence; +/− = weak fluorescence; + = medium fluorescence; ++ = strong fluorescence; NG = No Growth. The settings on record: substrate 100 mg/l, 24 hours at 37° C., UV 360-365 nm. The method, then: as §1, §2
Series [11] relates to Serratia marcescens NCTC 10211. The arrangement: key: − = no fluorescence detected; e = trace of fluorescence; +/− = weak fluorescence; + = medium fluorescence; ++ = strong fluorescence; NG = No Growth. As to conditions: substrate 100 mg/l, 24 hours at 37° C., UV 360-365 nm. The method, then:
as §1, §2

For series [12], the system named is Staphylococcus aureus NCTC 11939. Set-up: key: − = no fluorescence detected; e = trace of fluorescence; +/− = weak fluorescence; + = medium fluorescence; ++ = strong fluorescence; NG = No Growth. As to conditions: Staphylococcus aureus (MRSA) NCTC 11939; substrate 100 mg/l, 24 hours at 37° C., UV 360-365 nm. The method, then: as §1, §2
Series [13] concerns Staphylococcus aureus NCTC 6571. Set-up: key: − = no fluorescence detected; e = trace of fluorescence; +/− = weak fluorescence; + = medium fluorescence; ++ = strong fluorescence; NG = No Growth. The settings on record: substrate 100 mg/l, 24 hours at 37° C., UV 360-365 nm. The method, then: as §1, §2
For series [14], the system named is Staphylococcus epidermidis NCTC 11047. Set-up: key: − = no fluorescence detected; e = trace of fluorescence; +/− = weak fluorescence; + = medium fluorescence; ++ = strong fluorescence; NG = No Growth. As to conditions: substrate 100 mg/l, 24 hours at 37° C., UV 360-365 nm. The method, then: as §1, §2
For series [15], the system named is Streptococcus pyogenes NCTC 8306. Set-up: key: − = no fluorescence detected; e = trace of fluorescence; +/− = weak fluorescence; + = medium fluorescence; ++ = strong fluorescence; NG = No Growth. The settings on record: substrate 100 mg/l, 24 hours at 37° C., UV 360-365 nm. Here is the method:
as §1, §2

For series [16], the system named is Yersinia enterocolitica NCTC 11176. Set-up: key: − = no fluorescence detected; e = trace of fluorescence; +/− = weak fluorescence; + = medium fluorescence; ++ = strong fluorescence; NG = No Growth. The settings on record: substrate 100 mg/l, 24 hours at 37° C., UV 360-365 nm. Here is the method:
as §1, §2

Series [17] has as its system Burkholderia cepacia 1222. The arrangement: key to fluorescence intensity: − = no fluorescence detected; e = trace of fluorescence; +/− = weak fluorescence; + = medium fluorescence; ++ = strong fluorescence; NG = No Growth. As to conditions: Burkholderia cepacia 1222; substrate 100 mg/l, 24 hours at 37° C., UV 360-365 nm. Here is the method:
as §1, §2

For series [18], the system named is Pseudomonas aeruginosa NCTC 10662. Set-up: key to fluorescence intensity: − = no fluorescence detected; e = trace of fluorescence; +/− = weak fluorescence; + = medium fluorescence; ++ = strong fluorescence; NG = No Growth. As to conditions: Pseudomonas aeruginosa NCTC 10662; substrate 100 mg/l, 24 hours at 37° C., UV 360-365 nm. The method, then: as §1, §2
Series [19] relates to Gram-positive bacterial strains and the yeasts. As to conditions: all the Gram-positive bacterial strains and the yeasts. The method, then: as §1, §2
Series [20] deals with Citrobacter freundii 46262 (wild). The arrangement: key: − = no fluorescence detected; e = trace of fluorescence; +/− = weak fluorescence; + = medium fluorescence; ++ = strong fluorescence; NG = No Growth. The settings on record: substrate 100 mg/l, 24 hours at 37° C., UV 360-365 nm. The method, then:
as §1, §2

Series [21] concerns Enterococcus faecium NCTC 7171. The arrangement: key: − = no fluorescence detected; e = trace of fluorescence; +/− = weak fluorescence; + = medium fluorescence; ++ = strong fluorescence; NG = No Growth. As to conditions: Enterococcus faecium NCTC 7171 (Table 3); substrate 100 mg/l, 24 hours at 37° C., UV 360-365 nm. Here is the method: as §1, §2
Series [22] deals with Morganella morganii 462403 (wild). Set-up: key: − = no fluorescence detected; e = trace of fluorescence; +/− = weak fluorescence; + = medium fluorescence; ++ = strong fluorescence; NG = No Growth. The settings on record: substrate 100 mg/l, 24 hours at 37° C., UV 360-365 nm. The method, then: as §1, §2
Series [23] relates to Gram-negative bacterial strains. As to conditions: all the Gram-negative bacterial strains with the exception of the Burkholderia cepacia strain. Here is the method: as §1, §2
The test system of series [24] is Staphylococcus aureus strains. The settings on record: the two Staphylococcus aureus strains. The method, then:
as §1, §2

For series [25], the system named is enterococcal strains. The settings on record: the two enterococcal strains. The method, then:
as §1, §2

Turning to `C[C@H](N)C(=O)Nc1ccccc1-c1nc2ccccc2s1` [Substrate 17], the fluorescence intensity result is reported as “NG” in [1]; “NG” in [2]; “NG” in [3]; “+” in series [4]; “NG” in series [5]; “NG” in series [6]. Also, the fluorescence intensity entry in [7] was “+”; in series [8] it was “NG”; in series [9], “+”; in series [10], “NG”; in series [11], “+”; in series [12], “NG”. For the same compound, the fluorescence intensity result in [13] is “NG”; in series [14], “NG”; in series [15], “NG”; in series [16], “+”; in series [17], “+”; in [18], “+”. For the same compound, in series [19], the “toxicity (growth inhibition, text)” value is recorded as “inhibited”.

Turning to `C[C@H](N)C(=O)Nc1ccccc1-c1nc2ccccc2n1CCc1ccccc1` [Substrate 14], the fluorescence intensity entry in [1] is “−”; in series [2] it was “−”; in series [3] it was “−”; in [20], “−”; in series [4], “+/−”; in series [5], “−”. For the same compound, the fluorescence intensity result in [21], in series [7], in [8], in series [22], in series [9] and in series [10] was “−” in each case. Also, the fluorescence intensity entry in series [11] is listed as “+/−”; in series [12] it was “−”; in [13], “−”; in series [14], “−”; in series [15], “−”; in series [16], “−”. For the same compound, the fluorescence intensity entry in series [17] and in [18] was “−” in each case.

Take `C[C@H](N)C(=O)Nc1cc2c(cc1-c1nc3ccccc3n1CCc1ccccc1)OCO2` [Substrate 16]: the fluorescence intensity entry in series [1] is on record as “−”; in series [2], “−”; in [3], “−”; in [20], “++”; in [4], “++”; in series [5] it was “−”. The fluorescence intensity result in [21] is “−”; in [7] it was “++”; in [8], “−”; in series [22] it was “+”; in [9], “++”; in [10], “++”. Also, the fluorescence intensity entry in series [11] is “++”; in series [12], “−”; in [13], “−”; in [14] it was “−”; in [15], “−”; in [16], “−”. In addition, the fluorescence intensity result is listed as “++” in series [17] and “−” in series [18].

For the compound `C[C@H](N)C(=O)Nc1ccccc1-c1nc2ccccc2o1` [Substrate 1], the fluorescence intensity entry is on record as “−” in series [1]; “−” in series [2]; “−” in [3]; “++” in series [4]; “+/−” in [5]; “+/−” in series [6]. For the same compound, the fluorescence intensity result in series [7] is given as “++^1”; in [8], “+/−”; in [9], “++”; in [10], “++”; in [11], “++”; in [12], “+”. Moreover, the fluorescence intensity entry is “+” in [13]; “−” in series [14]; “−” in series [15]; “++” in [16]; “−” in series [17]; “++” in [18]. Further, the “fluorescence produced” value is on record as “strong blue fluorescence” in series [23], “medium green fluorescence” in [24] and “weak blue fluorescence” in series [25].

(Values after patent US8216800B2, “Substrates for detecting peptidase activity and methods using the substrates” (Biomerieux, priority 2007, dated 2012).)
